Laboratory results published in paper PMC3266282, “Role of AMP-Activated Protein Kinase on Steroid Hormone Biosynthesis in Adrenal NCI-H295R Cells” (PLoS ONE, 2012).

Target: T1, CYP17A1 (17α-hydroxylase/17,20 lyase) (Homo sapiens, UniProt P05093)
T1 construct: human recombinant CYP17A1 co-expressed with POR in yeast microsomes; with human P450 oxidoreductase (POR)
T1 sequence (P05093 1-508): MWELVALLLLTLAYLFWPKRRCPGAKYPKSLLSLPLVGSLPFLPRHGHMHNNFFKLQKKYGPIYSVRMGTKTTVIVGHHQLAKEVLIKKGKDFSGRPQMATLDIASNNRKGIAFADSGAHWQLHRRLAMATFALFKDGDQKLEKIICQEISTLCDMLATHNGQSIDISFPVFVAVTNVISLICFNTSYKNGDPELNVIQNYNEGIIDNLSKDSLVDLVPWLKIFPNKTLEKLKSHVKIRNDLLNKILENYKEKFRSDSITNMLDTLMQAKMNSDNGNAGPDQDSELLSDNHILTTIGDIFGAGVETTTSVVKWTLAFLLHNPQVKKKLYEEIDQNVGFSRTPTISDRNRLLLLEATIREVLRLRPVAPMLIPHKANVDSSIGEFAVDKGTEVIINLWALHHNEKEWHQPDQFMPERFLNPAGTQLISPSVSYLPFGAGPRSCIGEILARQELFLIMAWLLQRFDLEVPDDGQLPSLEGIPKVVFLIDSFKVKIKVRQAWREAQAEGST
T1 sequence (P16435 2-677 partner): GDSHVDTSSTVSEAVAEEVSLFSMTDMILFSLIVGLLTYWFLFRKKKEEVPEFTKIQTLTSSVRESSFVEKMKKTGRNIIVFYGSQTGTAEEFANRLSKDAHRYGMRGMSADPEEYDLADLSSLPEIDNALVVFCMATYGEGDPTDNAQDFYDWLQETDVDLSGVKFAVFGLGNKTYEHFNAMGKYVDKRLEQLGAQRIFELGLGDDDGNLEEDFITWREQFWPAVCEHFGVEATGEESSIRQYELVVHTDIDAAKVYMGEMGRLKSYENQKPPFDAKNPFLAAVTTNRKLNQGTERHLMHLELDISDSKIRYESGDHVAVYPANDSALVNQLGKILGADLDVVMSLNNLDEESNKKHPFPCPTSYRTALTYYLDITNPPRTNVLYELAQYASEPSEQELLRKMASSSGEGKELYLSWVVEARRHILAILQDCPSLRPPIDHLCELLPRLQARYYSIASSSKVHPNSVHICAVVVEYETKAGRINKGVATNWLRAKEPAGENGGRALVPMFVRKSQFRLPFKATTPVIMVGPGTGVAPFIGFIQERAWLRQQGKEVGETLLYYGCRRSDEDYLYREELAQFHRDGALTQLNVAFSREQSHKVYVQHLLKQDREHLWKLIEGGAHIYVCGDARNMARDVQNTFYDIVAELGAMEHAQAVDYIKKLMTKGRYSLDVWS
Experiment: […]α-hydroxylase activity in yeast microsomes with radiolabelled steroid substrate, TLC readout, dose-response
Type: biochemical

## c1cc(-c2cnn3cc(-c4ccc(OCCN5CCCCC5)cc4)cnc23)ccn1 [compound C]
  IC50: 9.6 nM
